Tests used:
Format in all cases: cell-based
ODR-10 [1] = molecular target: T1, ODR-10 (Caenorhabditis elegans, UniProt Q18807); assay: GFP reporter assay in Cyb-KAGMM yeast expressing ODR-10
T1 construct: expressed in transfected cells; host or cells: Saccharomyces cerevisiae Cyb-KAGMM (ste2- sst2- far1- gpa1-, gpa1/odr-3 chimaera integrated)
T1 sequence (Q18807 1-339): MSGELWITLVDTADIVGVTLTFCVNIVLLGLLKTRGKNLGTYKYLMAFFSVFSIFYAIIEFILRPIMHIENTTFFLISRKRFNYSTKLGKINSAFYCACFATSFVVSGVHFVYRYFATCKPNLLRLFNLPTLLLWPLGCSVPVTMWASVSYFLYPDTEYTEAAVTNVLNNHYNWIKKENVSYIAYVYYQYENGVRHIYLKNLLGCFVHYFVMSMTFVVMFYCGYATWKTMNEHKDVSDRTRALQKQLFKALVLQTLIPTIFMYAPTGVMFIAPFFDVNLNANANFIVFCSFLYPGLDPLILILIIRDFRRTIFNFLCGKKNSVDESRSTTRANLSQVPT

[2] = molecular target: odr-10 non-functional mutant H110Y (Caenorhabditis elegans, UniProt Q18807, H110Y); conditions: 500 μM diacetyl; wells H11 and H12
ODR-10 [3] = molecular target: T1, ODR-10; assay: 96-well LacZ/ONPG screen, positive control odr-10; conditions: 500 μM diacetyl
ODR-10 [4] = molecular target: T1, ODR-10; assay: Multiwell (48/96 well) LacZ/ONPG assay of yeast screening strain transformed with odr-10; conditions: for Abs414 reading after 3 hours: 500 μM diacetyl
Description: The method was as follows ([…] from Brouchon-[…] et al., 2003): • 1 mL of Saccharomyces cerevisiae Minimal Medium (SCMM)-His, -Leu was inoculated with a single colony of the screening strain transformed with odr-10 (lacZ/[…]^31 gpa1^-) at Abs600 nm=1, in a 96-well deep well plate. • The plate was incubated overnight (18 hours) at 30° C. with shaking at 900 rpm. • The culture from the well was diluted into fresh wells (96 or 48 well plate) to a final volume of 1 mL at the following yeast cell optical densities: • 1. Abs600=1 • 2. Abs600=0.5 • 3. Abs600=0.5 • Wells 1 and 2 above were induced with 500 μM of a diacetyl solution (made up fresh and kept on ice); 1M: 87 μL diacetyl+913 μL water; then diluted 1/10 in water and 5 μL added to 1 mL cells for a final concentration of 500 μM). All wells were incubated for 30° C. for 18 hours with shaking at 900 rpm. • The plate was centrifuged to pellet the cells, the supernatant was aspirated off and discarded and the pellet was resuspended in 120 μL of lysis buffer (100 mM sodium phosphate buffer, pH 7.5 (consisting of 82 mM Na2HPO4 and […] with 0.1% (w/v) sodium dodecyl sulfate). Initial absorbance was read at 414 nm in a plate-reading spectrophotometer. • The plate was shaken at 900 rpm for 10 min at 30° C. • Thirty microlitres of 2.5 mM o-nitrophenyl-β-D-galactopyranoside (ONPG) (10 mg ONPG dissolved in 130 μL dimethyl formamide is 250 mM, then dilute 1/100 in water for final concentration, which is 2.5 mM) was added and the plate was incubated at room temperature for between 5 minutes and 3 hours. • Eighty microlitres of a 1M Na2CO3 solution was added and the absorbance was read in a plate-based spectrophotometer, either at 414 nm or a spectrum was recorded for each well over the visible region. The assay was repeated with a range of different dilutions (1⁄4 to 1/20) of the starting yeast culture in the wells of either 96 or 48 deep-well plates (the former can contain a total of 2 mL and the latter 5 mL.) Normally dilutions required to reach Abs600 nm=1 are in the range of 1⁄2 to 1⁄4. This experiment probed a set of higher dilutions. Incubation was for 17 hours at 30° C. and 900 rpm shaking. […] In 96 well plates, the higher cell dilutions consistently gave the better diacetyl-induced to control ratios (FIG. 11). The best ratio was in the case of the 96-well plate and the 1/20 dilution where the diacetyl-induced absorbance was 0.481 and the uninduced control was 0.079.

ODR-10 [5] = molecular target: T1, ODR-10; assay: LacZ reporter assay (ONPG workup) in Cyb-KAGMM yeast expressing ODR-10; conditions: ONPG substrate

In the case of CC(=O)C(C)=O [diacetyl, butane-2,3-dione], the “GFP fluorescence emission relative to uninduced” value (ODR-10 [1]; 50 μM diacetyl, pGK:Odr10 with Fig2:GFP (FIG. 5 panel C)) is reported as “below the uninduced condition”, the “difference between the peak GFP responses with ODR-10 expression and for the vector control” value (ODR-10 [1]; 500 μM diacetyl, best case (FIG. 5a, pGK:Odr10 with Fus1:GFP), 7 hrs induction) is reported as “less than a twofold difference” and the “response (spectra)” value [2] is reported as “did not show any response”. The “response (yellow colour, spectral peak at 420 nm)” value (ODR-10 [3]; clone in well H9) was “responds”, the “response (colour or spectra)” value (ODR-10 [3]; clone in well H10) was “did not show any response” and the “Abs414 reading after 3 hours” value (ODR-10 [4]; Abs600 nm=0.5 starting condition) was 0.521. The “Abs414 reading after 3 hours” value (ODR-10 [4]; Abs600 nm=1 starting condition) was 0.247, the “diacetyl-induced absorbance (Abs414 nm)” value (ODR-10 [4]; 96-well plate, 1/20 dilution of starting culture, 17 hours incubation) was 0.481 and the “induction of lacZ” value (ODR-10 [4]; dilutions 1/4 to 1/20 of starting culture in 96 or 48 deep-well plates) was “detected in all the conditions except the 1/20 cell dilution in the 48 well plate”. For the same compound, the “maximum increase in signal over background” value (ODR-10 [5]; 700 μM diacetyl, LacZ driven by FUS-2 (so in the source), FIG. 8) was “approximately 6 fold” and the “maximum ligand-induced increase in signal” value (ODR-10 [5]; 1 mM diacetyl, LacZ under FUS-1 promoter, FIG. 9) was “approximately 2.5 fold”.

Source: US20160060642A1, “G Protein Coupled Receptor Libraries” (COMMONWEALTH SCIENTIFIC AND INDUSTRIAL RESEARCH ORGANISATION, priority 2013, published 2016)
